Results reported in US20240049723A1, “PLANT GROWTH REGULATOR OR METHOD FOR PROMOTING PLANT GROWTH” (Kureha Corporation, priority 2021, published 2024).

Columns and labels:
Type in all cases: in vivo
[1] = system: Arabidopsis thaliana (Col-0); assay: Evaluation Example 2: seed yield of Arabidopsis thaliana, C-EGT-DCH; settings: EGT concentration 0.1 mM; harvested 87th day after seeding
Procedure: (§1) One individual Arabidopsis thaliana (Col-0) was sown in a plastic pot having a diameter of 60 mm and a height of 55 mm. Plastic deep dishes each having a diameter of 160 mm and a height of 28 mm were prepared, and six pots were respectively placed therein. As soil, 45 mL of vermiculite, 22.5 mL of granular soil (Kumiai horticultural soil), and 22.5 mL of vermiculite were placed in the pot in this order.
(§2) In a growth chamber set at room temperature of 22° C., the light period was 16 hours and the dark period was 8 hours. The light conditions were set such that the light intensity was 5000 lx in the central part under irradiation with the fluorescent lamp. Water supply was conducted from the bottom, and the water level was set at about 5 mm. Chemical treatment was started […]. More specifically, on the 8th, 10th, 12th, and 14th days after seeding, 50 mL of the plant growth regulator was added instead of water supply.
As the plant growth regulator, the hot water extraction product of Dirkmeia churashimaensis (C-EGT-DCH) prepared in Production Example 1 was used. Furthermore, for comparison, a plant growth regulator formed from 0.1 mM of ergothioneine aqueous solution was used.
On the 87th day after seeding, seeds were harvested, and the seed yield was evaluated.

wheat = assay: Evaluation Example 3: plant height of wheat, petri dish; settings: EGT concentration 1 mM; 7th day after seeding
Procedure: (§3) In a 9 cm petri dish on which filter paper was spread, 10 mL of the plant growth regulator was added. Ten seeds of wheat or rapeseed were sown per one petri dish. In a thermostatic chamber set at room temperature of 25° C., the light period was 16 hours and the dark period was 8 hours. The light conditions were set using a fluorescent lamp (PLANT FLEC, 40 W LED fluorescent lamp for plant growth, electric bulb color, available from Nippon Medical and Chemical Instruments Co., Ltd.) such that the light intensity was 5000 lx in the central part under irradiation with the fluorescent lamp.
(§4) As the plant growth regulator, the hot water extraction product prepared in Production Example 1 was used. Furthermore, for comparison, a plant growth regulator formed from 1 mM of ergothioneine aqueous solution was used.
(§5) The plant height of the wheat or rapeseed on the 7th day after seeding was evaluated.

radish (Akamaru Hatsuka) = assay: Evaluation Example 5: underground part weight of radish; settings: EGT concentration 0.1 mM; 28th day after seeding
Procedure: In a plastic pot having a diameter of 100 mm and a height of 135 mm, 600 mL of granular soil (Kumiai horticultural soil) was placed, and one individual radish (Akamaru Hatsuka) was sown in a pot.
The radish was managed in a greenhouse set at room temperature of 25° C. Chemical treatment was started 2 weeks after seeding. More specifically, on the 10th, 12th, 14th, and 16th days after seeding, 50 mL of the plant growth regulator was added.
(§6) As the plant growth regulator, the hot water extraction product of Pseudozyma siamensis (C-EGT-PSI) prepared in Production Example 1 was used. Furthermore, for comparison, a plant growth regulator formed from 0.1 mM of ergothioneine aqueous solution was used.
On the 28th day after seeding, the underground part weight was evaluated.

tomato (Micro Tom) = assay: Evaluation Example 4: number of flowers of tomato; settings: EGT concentration 0.1 mM; 64th day after seeding
Procedure: In a plastic pot having a square of 120 mm length and a height of 100 mm, 1 L of granular soil (Kumiai horticultural soil) was placed, and one individual tomato (Micro Tom) was sown in a pot.
(§7) In a thermostatic chamber set at room temperature of 25° C., the light period was 16 hours and the dark period was 8 hours. The light conditions were set using a fluorescent lamp (PLANT FLEC, 40 W LED fluorescent lamp for plant growth, electric bulb color, available from Nippon Medical and Chemical Instruments Co., Ltd.) such that the light intensity was 5000 lx in the central part under irradiation with the fluorescent lamp. Water supply was conducted from the bottom, and the water level was set at about 5 mm. Chemical treatment was started 4 weeks after seeding. More specifically, on the 25th, 27th, 29th, 31st, 33rd, 35th, and 37th days after seeding, 50 mL of the plant growth regulator was added instead of water supply.
as §6
On the 64th day after seeding, the number of flowers was evaluated.

[2] = system: Arabidopsis thaliana (Col-0); assay: Evaluation Example 6: Arabidopsis thaliana treated with Pseudozyma siamensis extracts from various extraction methods; settings: EGT concentration 0.1 mM
Procedure: as §1, §2
(§8) As the plant growth regulator, various extracts of Pseudozyma siamensis obtained in Production Example 2 were used. Furthermore, for comparison, a plant growth regulator formed from 0.1 mM of ergothioneine aqueous solution was used.
On the 95th day after seeding, seeds were harvested, and the seed yield was evaluated.

rapeseed = assay: Evaluation Example 3: plant height of rapeseed, petri dish; settings: EGT concentration 1 mM; 7th day after seeding
Procedure: as §3, §4, §5

[3] = system: Arabidopsis thaliana (Col-0); assay: Evaluation Example 7: Arabidopsis thaliana treated with Pseudozyma siamensis extracts from various extraction methods; settings: EGT concentration 0.1 mM; 93rd day after seeding
Procedure: as §1, §2, §8
On the 93rd day after seeding, the plant height, the aboveground part weight, and the seed yield were evaluated.

[4] = system: Arabidopsis thaliana (Col-0); assay: Evaluation Example 1: seed yield of Arabidopsis thaliana, hot water extraction products; settings: EGT concentration 1 mM, harvested 89th day after seeding
Procedure: as §1
as §7, with “of 22°” for “of 25°”, “started 2” for “started 4”, “the 8th, 10th, 12th,” for “the 25th, 27th, 29th, 31st, 33rd, 35th,”, “and 14th” for “and 37th”
As the plant growth regulator, the hot water extraction product prepared in Production Example 1 was used. […]
On the 89th day after seeding, seeds were harvested, and the seed yield was evaluated.

[5] = harvested 95th day after seeding

With `C[N+](C)(C)[C@@H](Cc1c[nH]c(=S)[nH]1)C(=O)[O-]` [EGT, ergothioneine] the “Seed yield ratio to EGT” value [1] was 1.0, the “Seed yield ratio to untreated control” value [1] was 1.3 and the “Wheat plant height ratio to EGT” value (wheat) was 1.0. The “Wheat plant height ratio to untreated control” value (wheat) was 1.1, the “Underground part weight ratio to EGT” value (radish (Akamaru Hatsuka)) was 1.0 and the “Underground part weight ratio to untreated control” value (radish (Akamaru Hatsuka)) was 1.2. For the same compound, the “Flower number ratio to EGT” value (tomato (Micro Tom)) was 1.0, the “Flower number ratio to untreated control” value (tomato (Micro Tom)) was 1.3 and the “Plant height ratio to EGT” value ([2]; 95th day after seeding) was 1.0. The “Plant height ratio to untreated control” value ([2]; 95th day after seeding) was 1.1, the “Seed yield ratio to EGT” value [2, 5] was 1.0 and the “Seed yield ratio to untreated control” value [2, 5] was 1.2. The “Rapeseed plant height ratio to EGT” value (rapeseed) was 1.0, the “Rapeseed plant height ratio to untreated control” value (rapeseed) was 1.1 and the “Aboveground part weight ratio to EGT” value [3] was 1.0. The “Aboveground part weight ratio to untreated control” value [3] was 1.1, the “Plant height ratio to EGT” value [3] was 1.0 and the “Plant height ratio to untreated control” value [3] was 1.1. The “Seed yield ratio to EGT” value [3] was 1.0, the “Seed yield ratio to untreated control” value [3] was 1.3 and the “Seed yield ratio to EGT” value ([4]; compared with 1 mM EGT) was 1.0. For the same compound, the “Seed yield ratio to untreated control” value ([4]; 50 mL on 8th, 10th, 12th, 14th days) was 1.2.
